Test results published in US3932383A, “9-Dihydroniddamycin A compounds and related 3-(O)-esters and the process for their preparation” (Abbott Laboratories, priority 1974, dated 1976).
Converted amounts (≈) assume the structure as drawn.

Assays:
Assay type in all cases: cell-based
[1] = test system: Streptococcus pyogenes C203; assay: two-fold tube dilution test; conditions: brain-heart infusion broth, 24 hours at 37° C., read-out: Minimum Inhibitory Concentration
Protocol: (§1) Three niddamycin and two dihydroniddamycin compounds were tested for their activity against Streptococcus pyogenes C203, Diplococcus pneumoniae 6301 and Mycoplasma pneumoniae FH.
(§2) A standard two-fold tube dilution test was used. The medium and inoculum were varied with each culture.
In the test for activity against Streptococcus pyrogenes C203, 5 ml. portions of brain-heart infusion broth were used with 0.1 ml. of a 1:100 dilution culture. The test was incubated for 24 hours at 37° C.

Mycoplasma pneumoniae FH [2] = assay: two-fold tube dilution test; conditions: 144 h, PPLO broth, 6 days at 37° C., read-out: Minimum Inhibitory Concentration
Protocol: as §1, §2
In the test for activity against Mycoplasma pneumoniae FH, 4.5 ml. portions of PPLO broth were used with 0.5 ml. of a 1:100 dilution culture. the test was incubated for 6 days at 37° C.

Escherichia coli Juhl = assay: agar two-fold dilution test; conditions: 37° C., read-out: Minimum Inhibitory Concentration
Protocol: (§3) Two niddamycin derivatives were tested for their activity against 21 organisms.
(§4) An agar dilution two-fold dilution test was used for the first 14 bacterial organisms, while the remaining seven were tested by means of a two-fold tube dilution method. The incubation for all the tests was carried out at 37° C.
(§5) The niddamycin base compound (M-188 ) was used as the control compound.

[3] = test system: Klebsiella pneumoniae 10031; assay: agar two-fold dilution test; conditions: 37° C., read-out: Minimum Inhibitory Concentration
Protocol: as §3, §4, §5

[4] = test system: Pasteurella multocida 10544; assay: agar two-fold dilution test; conditions: 37° C., read-out: Minimum Inhibitory Concentration
Protocol: as §3, §4, §5

[5] = test system: Proteus mirabilis Finland No. 9; assay: agar two-fold dilution test; conditions: 37° C., read-out: Minimum Inhibitory Concentration
Protocol: as §3, §4, §5

[6] = test system: Proteus vulgaris Abbott JJ; assay: agar two-fold dilution test; conditions: 37° C., read-out: Minimum Inhibitory Concentration
Protocol: as §3, §4, §5

[7] = test system: Pseudomonas aeruginosa BMH No. 10; assay: agar two-fold dilution test; conditions: BMHNO.10, 37° C., read-out: Minimum Inhibitory Concentration
Protocol: as §3, §4, §5

[8] = test system: Salmonella typhimurium Ed No. 9; assay: agar two-fold dilution test; conditions: Salmonella enterica, 37° C., read-out: Minimum Inhibitory Concentration
Protocol: as §3, §4, §5

Shigella sonnei 9290 = assay: agar two-fold dilution test; conditions: 37° C., read-out: Minimum Inhibitory Concentration
Protocol: as §3, §4, §5

[9] = test system: Staphylococcus aureus 9144; assay: agar two-fold dilution test; conditions: 37° C., read-out: Minimum Inhibitory Concentration
Protocol: as §3, §4, §5

[10] = test system: Staphylococcus aureus Smith ER; assay: agar two-fold dilution test; conditions: read-out: Minimum Inhibitory Concentration
Protocol: as §3, §4, §5

[11] = test system: Staphylococcus aureus Smith; assay: agar two-fold dilution test; conditions: 37° C., read-out: Minimum Inhibitory Concentration
Protocol: as §3, §4, §5

[12] = test system: Staphylococcus aureus Wise 155; assay: agar two-fold dilution test; conditions: WISE155, 37° C., read-out: Minimum Inhibitory Concentration
Protocol: as §3, §4, §5

[13] = test system: Streptococcus faecalis 10541; assay: agar two-fold dilution test; conditions: Enterococcus faecalis, 37° C., read-out: Minimum Inhibitory Concentration
Protocol: as §3, §4, §5

[14] = test system: Streptococcus pyogenes Roper; assay: agar two-fold dilution test; conditions: 37° C., read-out: Minimum Inhibitory Concentration
Protocol: as §3, §4, §5

Crithidia fasciculata = assay: two-fold tube dilution method; conditions: 37° C., read-out: Minimum Inhibitory Concentration
Protocol: as §3, §4, §5

[15] = test system: Haemophilus influenzae 9334; assay: two-fold tube dilution method; conditions: 37° C., read-out: Minimum Inhibitory Concentration
Protocol: as §3, §4, §5

[16] = test system: Mycoplasma gallispeticum S6; assay: two-fold tube dilution method; conditions: 37° C., read-out: Minimum Inhibitory Concentration
Protocol: as §3, §4, §5

[17] = test system: Mycoplasma granularum 19168; assay: two-fold tube dilution method; conditions: Acholeplasma granularum, 37° C., read-out: Minimum Inhibitory Concentration
Protocol: as §3, §4, §5

[18] = test system: Mycoplasma hyorhinis 17981; assay: two-fold tube dilution method; conditions: 37° C., read-out: Minimum Inhibitory Concentration
Protocol: as §3, §4, §5

Mycoplasma pneumoniae FH [19] = assay: two-fold tube dilution method; conditions: 37° C. (Table 2), read-out: Minimum Inhibitory Concentration
Protocol: as §3, §4, §5

[20] = test system: Trichomonas vaginalis C1M1; assay: two-fold tube dilution method; conditions: 37° C., read-out: Minimum Inhibitory Concentration
Protocol: as §3, §4, §5

A. versicolor = assay: standard FG (fungi) screening program; conditions: Aspergillus versicolor, read-out: Minimum Inhibitory Concentration
Protocol: (§6) The samples were also tested on the standard FG (fungi) screening program.
as §5

Alternaria label isolate = assay: standard FG (fungi) screening program; conditions: read-out: Minimum Inhibitory Concentration
Protocol: as §6, §5

C. globosum = assay: standard FG (fungi) screening program; conditions: Chaetomium globosum, read-out: Minimum Inhibitory Concentration
Protocol: as §6, §5

F. oxysporum = assay: standard FG (fungi) screening program; conditions: Fusarium oxysporum, read-out: Minimum Inhibitory Concentration
Protocol: as §6, §5

M. verrucaria = assay: standard FG (fungi) screening program; conditions: read-out: Minimum Inhibitory Concentration
Protocol: as §6, §5

P. citrinum = assay: standard FG (fungi) screening program; conditions: Penicillium citrinum, read-out: Minimum Inhibitory Concentration
Protocol: as §6, §5

Rhizopus nigricans = assay: standard FG (fungi) screening program; conditions: Rhizopus stolonifer, read-out: Minimum Inhibitory Concentration
Protocol: as §6, §5

With COC(CC1CC(C)C(O)C=CC=CCC(C)OC(=O)CC(O)C(OC)C1OC1OC(C)C(OC2CC(C)(O)C(OC(=O)CC(C)C)C(C)O2)C(N(C)C)C1O)OC (single isomer, unassigned) [Compound 3, 9-Dihydroniddamycin A dimethyl acetal] as the molecule, how does the MIC [1] read?
The MIC was 25 µg/mL (≈ 30 µM).

What about the MIC (Mycoplasma pneumoniae FH [2]) of the same molecule?
Its MIC is 50 µg/mL (≈ 60.1 µM).

Which MIC [1] does the source give for COC(CC1CC(C)C(=O)C=CC=CCC(C)OC(=O)CC(OC(C)=O)C(OC)C1OC1OC(C)C(OC2CC(C)(O)C(OC(=O)CC(C)C)C(C)O2)C(N(C)C)C1O)OC (stereo not shown) [Compound 6B, 3-(O)-Acetylniddamycin dimethyl acetal] here?
Its MIC is 12.5 µg/mL (≈ 14.3 µM).

And the MIC (Mycoplasma pneumoniae FH [2])?
Its MIC is 25 µg/mL (≈ 28.7 µM).

For COC1C(OC(C)=O)CC(=O)OC(C)CC=CC=CC(O)C(C)CC(CC=O)C1OC1OC(C)C(OC2CC(C)(O)C(OC(=O)CC(C)C)C(C)O2)C(N(C)C)C1O (single isomer, unassigned) [Compound 8B, 3-(O)-Acetyl-9-Dihydroniddamycin A], which MIC (Escherichia coli Juhl) is on record?
Its MIC is greater than 100 µg/mL.

What about the MIC [3] of the same molecule?
The MIC was 25 µg/mL (≈ 30.2 µM).

What about the MIC [4] of the same molecule?
The MIC was 12.5 µg/mL (≈ 15.1 µM).

What about the MIC [5] of the same molecule?
Its MIC is greater than 100 µg/mL.

And the MIC [6]?
Its MIC is greater than 100 µg/mL.

And the MIC [7]?
Its MIC is greater than 100 µg/mL.

What about the MIC [8] of the same molecule?
Its MIC is greater than 100 µg/mL.

What about the MIC (Shigella sonnei 9290) of the same molecule?
The MIC was greater than 100 µg/mL.

And the MIC [9]?
The MIC was 0.78 µg/mL (≈ 0.942 µM).

And the MIC [10]?
Its MIC is greater than 100 µg/mL.

And the MIC [11]?
The MIC was 0.78 µg/mL (≈ 0.942 µM).

And the MIC [12]?
Its MIC is 1.56 µg/mL (≈ 1.88 µM).

And the MIC [13]?
The MIC was 1.56 µg/mL (≈ 1.88 µM).

What about the MIC [14] of the same molecule?
Its MIC is greater than 100 µg/mL.

And the MIC (Crithidia fasciculata)?
Its MIC is greater than 100 µg/mL.

And the MIC [15]?
The MIC was 6.2 µg/mL (≈ 7.49 µM).

What about the MIC [16] of the same molecule?
The MIC was 0.25 µg/mL (≈ 0.302 µM).

What about the MIC [17] of the same molecule?
Its MIC is 5 µg/mL (≈ 6.04 µM).

What about the MIC [18] of the same molecule?
Its MIC is 0.5 µg/mL (≈ 0.604 µM).

And the MIC (Mycoplasma pneumoniae FH [19])?
The MIC was 25 µg/mL (≈ 30.2 µM).

What about the MIC [20] of the same molecule?
The MIC was greater than 100 µg/mL.

What about the MIC (A. versicolor) of the same molecule?
Its MIC is greater than 100 µg/mL.

And the MIC (Alternaria label isolate)?
Its MIC is greater than 100 µg/mL.

And the MIC (C. globosum)?
Its MIC is greater than 100 µg/mL.

And the MIC (F. oxysporum)?
The MIC was greater than 100 µg/mL.

What about the MIC (M. verrucaria) of the same molecule?
The MIC was greater than 100 µg/mL.

What about the MIC (P. citrinum) of the same molecule?
Its MIC is greater than 100 µg/mL.

And the MIC (Rhizopus nigricans)?
The MIC was greater than 100 µg/mL.

Which MIC [1] does the source give for COC(CC1CC(C)C(O)C=CC=CCC(C)OC(=O)CC(OC(C)=O)C(OC)C1OC1OC(C)C(OC2CC(C)(O)C(OC(=O)CC(C)C)C(C)O2)C(N(C)C)C1O)OC (single isomer, unassigned) [Compound 7B, 3-(O)-Acetyl-9-dihydroniddamycin A dimethyl acetal] here?
Its MIC is 100 µg/mL (≈ 114 µM).

What about the MIC (Mycoplasma pneumoniae FH [2]) of the same molecule?
Its MIC is 50 µg/mL (≈ 57.2 µM).
